Measured values published in the supplement of paper PMC4862054.

How the values were obtained:
Assay in all cases: normalised response (% of control), CellTiter-Glo; higher = more viable cells (100 = DMSO, 0 = benzethonium chloride kill control)
Conditions in all cases: incubation time: 72 h
BT-474 = tested on: BT-474
Procedure, shortened: (§1)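 Breast cancer cell lines, seeded at 20 µl suspension per well, were incubated for 72 h in 384-well plates containing compound at 5 concentrations. These concentrations rose in 10-fold steps over a 10,000-fold range set for each compound. CellTox Green fluorescence (485/520 nm) was read, then CellTiter-Glo luminescence after 10 min at room temperature, and each plate was normalised to 0.1 % DMSO (100) and a positive kill control (0). Values are normalised signals, each at one concentration.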

BT-549 = tested on: BT-549
Procedure, shortened: as §1

CAL-120 = tested on: CAL-120
Procedure, shortened: as §1

CAL-148 = tested on: CAL-148
Procedure, shortened: as §1

CAL-51 = tested on: CAL-51
Procedure, shortened: as §1

CAL-85-1 = tested on: CAL-85-1
Procedure, shortened: as §1

DU-4475 = tested on: DU-4475
Procedure, shortened: as §1

HCC1143 = tested on: HCC1143
Procedure, shortened: as §1

HCC1599 = tested on: HCC1599
Procedure, shortened: as §1

HCC1937 = tested on: HCC1937
Procedure, shortened: as §1

HDQ-P1 = tested on: HDQ-P1
Procedure, shortened: as §1

Hs578T = tested on: Hs578T
Procedure, shortened: as §1

MCF-10A = tested on: MCF-10A
Procedure, shortened: as §1

MDA-MB-231 = tested on: MDA-MB-231
Procedure, shortened: as §1

MDA-MB-436 = tested on: MDA-MB-436
Procedure, shortened: as §1

MDA-MB-453 = tested on: MDA-MB-453
Procedure, shortened: as §1

MDA-MB-468 = tested on: MDA-MB-468
Procedure, shortened: as §1

MFM-223 = tested on: MFM-223
Procedure, shortened: as §1

SK-BR-3 = tested on: SK-BR-3
Procedure, shortened: as §1

| Structure (SMILES) | normalised response (BT-474) [%] | normalised response (BT-549) [%] | normalised response (CAL-120) [%] | normalised response (CAL-148) [%] | normalised response (CAL-51) [%] | normalised response (CAL-85-1) [%] | normalised response (DU-4475) [%] | normalised response (HCC1143) [%] | normalised response (HCC1599) [%] | normalised response (HCC1937) [%] | normalised response (HDQ-P1) [%] | normalised response (Hs578T) [%] | normalised response (MCF-10A) [%] | normalised response (MDA-MB-231) [%] | normalised response (MDA-MB-436) [%] | normalised response (MDA-MB-453) [%] | normalised response (MDA-MB-468) [%] | normalised response (MFM-223) [%] | normalised response (SK-BR-3) [%] |
| --- | --- | --- | --- | --- | --- | --- | --- | --- | --- | --- | --- | --- | --- | --- | --- | --- | --- | --- | --- |
| CCCCC/C=C/C=C1/C(=O)C=C[C@@H]1C/C=C\CCCC(=O)O [15D-PGJ2] (0.8 nM) | 103 | 97.8 | 100 | 107 | 81.2 | 94.7 | 102 | 108 | 93.8 | 108 | 98.9 | 101 | 104 | 102 | 98.2 | 97 | 92.8 | 102 | 101 |
| O=C(Nc1c[nH]nc1-c1nc2ccc(CN3CCOCC3)cc2[nH]1)NC1CC1 [AT9283] (0.1 nM) | 102 | 89 | 45.5 | 99.5 | 81.9 | 95.8 | 101 | 97 | 109 | 99.9 | 96.8 | 97.5 | 97.5 | 104 | 97.5 | 98.4 | 97.2 | 100 | 90 |
| COc1cc(CCc2cc(NC(=O)c3ccc(N4CC(C)NC(C)C4)cc3)n[nH]2)cc(OC)c1 (stereo unspecified) [AZD4547] (0.1 nM) | 97.5 | 105 | 104 | 82.8 | 135 | 97.9 | 97.9 | 101 | 115 | 94.2 | 99.9 | 95.3 | 92.3 | 101 | 102 | 97.5 | 103 | 93.2 | 91.5 |
| COc1cc(CCc2cc(NC(=O)c3ccc(N4CC(C)NC(C)C4)cc3)n[nH]2)cc(OC)c1 (stereo unspecified) [AZD4547] (1 nM) | 103 | 94.8 | 101 | 85 | 102 | 96.9 | 94.6 | 97 | 104 | 98.4 | 98.3 | 98.6 | 96.7 | 96 | 97.2 | 91.9 | 97.8 | 91.9 | 106 |
| CC(=O)OC[C@H]1O[C@@H]([S-])[C@H](OC(C)=O)[C@@H](OC(C)=O)[C@@H]1OC(C)=O.CCP(CC)CC.[Au+] [Auranofin] (0.25 nM) | 99.4 | 97.4 | 100 | 101 | 70.1 | 93.8 | 97.9 | 99 | 75.3 | 92.3 | 99.9 | 104 | 108 | 104 | 93.8 | 103 | 95.7 | 103 | 101 |
| CC(=O)OC[C@H]1O[C@@H]([S-])[C@H](OC(C)=O)[C@@H](OC(C)=O)[C@@H]1OC(C)=O.CCP(CC)CC.[Au+] [Auranofin] (2.5 nM) | 99.4 | 95.8 | 92.5 | 106 | 111 | 95.4 | 105 | 97.8 | 87.5 | 94.5 | 91.3 | 103 | 107 | 108 | 103 | 99.8 | 99.2 | 104 | 104 |
| CCC/C=C/C=C/C(=O)O[C@H]1/C(=C/C(=O)OC)C[C@H]2C[C@H]([C@@H](C)O)OC(=O)C[C@H](O)C[C@@H]3C[C@H](OC(C)=O)C(C)(C)[C@](O)(C[C@@H]4C/C(=C/C(=O)OC)C[C@H](/C=C/C(C)(C)[C@]1(O)O2)O4)O3 [Bryostatin 1] (0.01 nM) | 106 | 99.1 | 96.1 | 101 | 92.1 | 101 | 107 | 97.7 | 118 | 98.6 | 97.8 | 100 | 108 | 105 | 101 | 109 | 104 | 105 | 103 |
| CO[C@@H](C(=O)N1Cc2[nH]nc(NC(=O)c3ccc(N4CCN(C)CC4)cc3)c2C1)c1ccccc1 [Danusertib] (1 nM) | 101 | 102 | 99.1 | 98.2 | 101 | 96.3 | 99 | 91.5 | 121 | 95.5 | 93.9 | 98 | 94.2 | 104 | 103 | 110 | 101 | 94.8 | 90.8 |
| Cc1nc(Nc2ncc(C(=O)Nc3c(C)cccc3Cl)s2)cc(N2CCN(CCO)CC2)n1 [Dasatinib] (0.1 nM) | 97.3 | 98.3 | 98.9 | 96.9 | 77 | 94.2 | 94.6 | 96.5 | 99 | 98.5 | 98.9 | 99.7 | 107 | 93.9 | 101 | 112 | 93.3 | 99.9 | 98.3 |
| O=S(=O)(c1cccc2cnccc12)N1CCCNCC1 [Fasudil] (5 nM) | 97.4 | 99.6 | 95.5 | 105 | 81.8 | 102 | 101 | 96.1 | 109 | 94.8 | 103 | 97.3 | 97.9 | 101 | 98 | 107 | 103 | 99.3 | 101 |
| Cc1c(CN2CCN(C(=O)[C@H](C)O)CC2)sc2c(N3CCOCC3)nc(-c3cnc(N)nc3)nc12 [GDC-0980] (1 nM) | 111 | 105 | 104 | 112 | 115 | 105 | 104 | 96.7 | 110 | 98.9 | 103 | 103 | 108 | 109 | 101 | 94.9 | 108 | 98.8 | 105 |
| Cc1c(CN2CCN(C(=O)[C@H](C)O)CC2)sc2c(N3CCOCC3)nc(-c3cnc(N)nc3)nc12 [GDC-0980] (10 nM) | 106 | 101 | 97.4 | 117 | 90.2 | 96.9 | 101 | 106 | 105 | 107 | 94.4 | 98.3 | 109 | 107 | 104 | 97.5 | 113 | 106 | 108 |
| Cc1cccc(-c2nn3c(c2-c2ccnc4ccc(C(N)=O)cc24)CCC3)n1 [Galunisertib] (0.1 nM) | 108 | 95.7 | 104 | 112 | 76.9 | 98.1 | 105 | 110 | 107 | 104 | 104 | 110 | 109 | 100 | 104 | 107 | 116 | 108 | 109 |
| Nc1cccc2c1CN(C1CCC(=O)NC1=O)C2=O (stereo unspecified) [Lenalidomide] (1 nM) | 97 | 101 | 94.9 | 97.8 | 113 | 108 | 106 | 93.1 | 106 | 94 | 97.9 | 97.1 | 96.1 | 98.4 | 94 | 112 | 110 | 97.3 | 107 |
| Nc1cccc2c1CN(C1CCC(=O)NC1=O)C2=O (stereo unspecified) [Lenalidomide] (10 nM) | 97.8 | 101 | 92.6 | 99.7 | 73.6 | 106 | 102 | 105 | 111 | 91.2 | 99.9 | 97.1 | 104 | 97.8 | 91.9 | 104 | 105 | 95.8 | 107 |
| C[C@]12O[C@H](C[C@]1(O)CO)n1c3ccccc3c3c4c(c5c6ccccc6n2c5c31)CNC4=O [Lestaurtinib] (0.1 nM) | 96.7 | 98.4 | 103 | 90.7 | 91.1 | 103 | 94.8 | 99.6 | 92.7 | 95 | 100 | 97.8 | 92.9 | 102 | 94 | 100 | 95.8 | 96.7 | 89.2 |
| O=C1c2c(O)ccc(O)c2C(=O)c2c(NCCNCCO)ccc(NCCNCCO)c21 [Mitoxantrone] (0.1 nM) | 91.8 | 99.3 | 103 | 94.2 | 101 | 101 | 94.2 | 104 | 95.3 | 98.1 | 102 | 96.9 | 103 | 98.9 | 84.4 | 99.3 | 97.8 | 97.3 | 98 |
| O=C1c2c(O)ccc(O)c2C(=O)c2c(NCCNCCO)ccc(NCCNCCO)c21 [Mitoxantrone] (1 nM) | 94.5 | 91.3 | 96.9 | 101 | 73.6 | 100 | 99.1 | 98.3 | 96.7 | 98.7 | 96.2 | 102 | 97.8 | 100 | 98.8 | 103 | 100 | 106 | 100 |
| Nc1ccccc1NC(=O)c1ccc(CNc2nccc(-c3cccnc3)n2)cc1 [Mocetinostat] (1 nM) | 100 | 98.5 | 102 | 109 | 85.2 | 101 | 105 | 96.7 | 91.5 | 102 | 101 | 99.3 | 91.6 | 103 | 111 | 114 | 101 | 98.1 | 103 |
